Results as given in patent US20250312323A1 (Cavion, Inc., priority 2018, published 2025).

Legend:
[1] = tested on: patients with essential tremor; assay: T-CALM: electrocardiogram, vital signs, clinical laboratory, examinations; type: in vivo, human
Protocol: Electrocardiogram results were calculated as the average of the triplicate records at each time point. Baseline was defined as the mean of the triplicate values obtained pre-dose at Day 1. If this value was not available, the mean of the triplicate records obtained at screening were used.
Safety procedures involved collection of all TEAEs (treatment-emergent adverse events) coded into the Medical Dictionary for Regulatory Activities (MedDRA) version 20. Adverse events were classified by maximum severity, drug-related adverse events, serious adverse events, and adverse events leading to patient discontinuation.

[2] = tested on: patients with essential tremor; assay: T-CALM: Kinesia ONE accelerometry score; type: in vivo, human
Excerpt: Kinesia One platform is deployed in T-CALM as a digital marker of tremor severity. Kinesia One is FDA cleared for monitoring Parkinson's motor symptom severity with only limited data on assessment of tremor in ET patients. The algorithmically derived score was developed primarily in Parkinson's disease algorithms and has limited validation in ET (see, e.g., Hoffman et al., 2011 Conf Proc IEEE Eng Med Biol Soc. 2011:4378-81). The Kinesia One device is placed on the index finger of each ET patient and worn in the clinic after completion of the TETRAS Performance subscale. Four tasks are performed by the patient on the left and right sides to assess resting, postural, kinetic and lateral wing beating tremor. The Kinesia One score change in score from baseline to day 28 is evaluated as a secondary efficacy endpoint. The Kinesia One data is also utilized for exploratory analysis of efficacy on the change from baseline to day 15 for accelerometry score and for change from baseline on amplitude measures for days 15 and 28. Consistent finger sensor placement and consistent task execution are critical factors for valid Kinesia One scores.
Both sets of scores were statistically analyzed.

[3] = tested on: patients with essential tremor; assay: T-CALM: TETRAS performance subscale, investigator rated
[4] = Day 15, change from baseline, N = 39
[5] = Day 28, change from baseline, N = 37

CC(C)c1ccc(CC(=O)N[C@H](C)c2ccc(OCC(F)(F)F)cn2)cc1 [CX-8998]
clinical laboratory parameters vs placebo [1]: No clinically meaningful differences | vital signs, ECG, neurological and physical examinations [1]: No clinically significant abnormalities | Kinesia ONE Total Score change from baseline, LS mean difference from placebo (95% CI) ([2]; Day 15, ANCOVA): −0.4 (−1.7, 0.9) | Kinesia ONE score, difference vs placebo ([2]; Day 15 and Day 28): did not show a significant difference | TETRAS-PS Score, subjects with 0 change, n (%) [3, 4]: 2 (5.1%) | TETRAS-PS Score, subjects with >0 to 1 point improvement, n (%) [3, 4]: 3 (7.7%) | TETRAS-PS Score, subjects with >0 to 1 point worsening, n (%) [3, 4]: 2 (5.1%) | TETRAS-PS Score, subjects with >1 to 2.5 point improvement, n (%) [3, 4]: 4 (10.3%) | TETRAS-PS Score, subjects with >1 to 2.5 point worsening, n (%) [3, 4]: 5 (12.8%) | TETRAS-PS Score, subjects with >2.5 to 5 point improvement, n (%) [3, 4]: 10 (25.6%) | TETRAS-PS Score, subjects with >2.5 to 5 point worsening, n (%) [3, 4]: 2 (5.1%) | TETRAS-PS Score, subjects with >5 to 10 point improvement, n (%) [3, 4]: 8 (20.5%) | TETRAS-PS Score, subjects with >5 to 10 point worsening, n (%) [3, 4]: 0 | TETRAS-PS Score, subjects with >10 point improvement, n (%) [3, 4]: 3 (7.7%) | TETRAS-PS Score, subjects with >10 point worsening, n (%) [3, 4]: 0 | LS mean (±SE) change from baseline in TETRAS-PS scored by investigators (in person), primary endpoint analysis ([3]; Day 28): −4.8±0.80 | Subjects with improvement of at least 5 points by TETRAS-PS score, number ([3]; Day 28, N 37): 16 | Subjects with improvement of at least 5 points by TETRAS-PS score, percent ([3]; Day 28, N 37): (43.2%) | TETRAS-PS Score, subjects with 0 change, n (%) [3, 5]: 1 (2.6%) | TETRAS-PS Score, subjects with >0 to 1 point improvement, n (%) [3, 5]: 6 (15.4%) | TETRAS-PS Score, subjects with >0 to 1 point worsening, n (%) [3, 5]: 2 (5.1%) | TETRAS-PS Score, subjects with >1 to 2.5 point improvement, n (%) [3, 5]: 5 (12.8%) | TETRAS-PS Score, subjects with >1 to 2.5 point worsening, n (%) [3, 5]: 1 (2.6%) | TETRAS-PS Score, subjects with >2.5 to 5 point improvement, n (%) [3, 5]: 11 (28.2%) | TETRAS-PS Score, subjects with >2.5 to 5 point worsening, n (%) [3, 5]: 1 (2.6%) | TETRAS-PS Score, subjects with >5 to 10 point improvement, n (%) [3, 5]: 8 (20.5%) | TETRAS-PS Score, subjects with >5 to 10 point worsening, n (%) [3, 5]: 0 | TETRAS-PS Score, subjects with >10 point improvement, n (%) [3, 5]: 4 (10.3%) | TETRAS-PS Score, subjects with >10 point worsening, n (%) [3, 5]: 0
